Source: patent US20070043024A1, “Azacyclic compounds as inhibitors of sensory neurone specific channels” (priority 2003, published 2007)
pIC50: −log10 of the molar value.

What follows are compounds tested against T1, human Nav1.8 (hNav1.8) ion channel (Homo sapiens, UniProt Q9Y5Y9) (assay: Inhibition of human Nav1.8 stably expressed in SH-SY-5Y cells (membrane potential dye fluorescence assay)). Conditions: IC50, Table 1; SH-SY-5Y hNav1.8 cells, inhibition of membrane depolarisation, FLIPR membrane potential dye, 250 nM TTX, test concentration range 100 μM-0.05 μM.
T1 construct: expressed in transfected cells
T1 sequence (Q9Y5Y9 whole entry): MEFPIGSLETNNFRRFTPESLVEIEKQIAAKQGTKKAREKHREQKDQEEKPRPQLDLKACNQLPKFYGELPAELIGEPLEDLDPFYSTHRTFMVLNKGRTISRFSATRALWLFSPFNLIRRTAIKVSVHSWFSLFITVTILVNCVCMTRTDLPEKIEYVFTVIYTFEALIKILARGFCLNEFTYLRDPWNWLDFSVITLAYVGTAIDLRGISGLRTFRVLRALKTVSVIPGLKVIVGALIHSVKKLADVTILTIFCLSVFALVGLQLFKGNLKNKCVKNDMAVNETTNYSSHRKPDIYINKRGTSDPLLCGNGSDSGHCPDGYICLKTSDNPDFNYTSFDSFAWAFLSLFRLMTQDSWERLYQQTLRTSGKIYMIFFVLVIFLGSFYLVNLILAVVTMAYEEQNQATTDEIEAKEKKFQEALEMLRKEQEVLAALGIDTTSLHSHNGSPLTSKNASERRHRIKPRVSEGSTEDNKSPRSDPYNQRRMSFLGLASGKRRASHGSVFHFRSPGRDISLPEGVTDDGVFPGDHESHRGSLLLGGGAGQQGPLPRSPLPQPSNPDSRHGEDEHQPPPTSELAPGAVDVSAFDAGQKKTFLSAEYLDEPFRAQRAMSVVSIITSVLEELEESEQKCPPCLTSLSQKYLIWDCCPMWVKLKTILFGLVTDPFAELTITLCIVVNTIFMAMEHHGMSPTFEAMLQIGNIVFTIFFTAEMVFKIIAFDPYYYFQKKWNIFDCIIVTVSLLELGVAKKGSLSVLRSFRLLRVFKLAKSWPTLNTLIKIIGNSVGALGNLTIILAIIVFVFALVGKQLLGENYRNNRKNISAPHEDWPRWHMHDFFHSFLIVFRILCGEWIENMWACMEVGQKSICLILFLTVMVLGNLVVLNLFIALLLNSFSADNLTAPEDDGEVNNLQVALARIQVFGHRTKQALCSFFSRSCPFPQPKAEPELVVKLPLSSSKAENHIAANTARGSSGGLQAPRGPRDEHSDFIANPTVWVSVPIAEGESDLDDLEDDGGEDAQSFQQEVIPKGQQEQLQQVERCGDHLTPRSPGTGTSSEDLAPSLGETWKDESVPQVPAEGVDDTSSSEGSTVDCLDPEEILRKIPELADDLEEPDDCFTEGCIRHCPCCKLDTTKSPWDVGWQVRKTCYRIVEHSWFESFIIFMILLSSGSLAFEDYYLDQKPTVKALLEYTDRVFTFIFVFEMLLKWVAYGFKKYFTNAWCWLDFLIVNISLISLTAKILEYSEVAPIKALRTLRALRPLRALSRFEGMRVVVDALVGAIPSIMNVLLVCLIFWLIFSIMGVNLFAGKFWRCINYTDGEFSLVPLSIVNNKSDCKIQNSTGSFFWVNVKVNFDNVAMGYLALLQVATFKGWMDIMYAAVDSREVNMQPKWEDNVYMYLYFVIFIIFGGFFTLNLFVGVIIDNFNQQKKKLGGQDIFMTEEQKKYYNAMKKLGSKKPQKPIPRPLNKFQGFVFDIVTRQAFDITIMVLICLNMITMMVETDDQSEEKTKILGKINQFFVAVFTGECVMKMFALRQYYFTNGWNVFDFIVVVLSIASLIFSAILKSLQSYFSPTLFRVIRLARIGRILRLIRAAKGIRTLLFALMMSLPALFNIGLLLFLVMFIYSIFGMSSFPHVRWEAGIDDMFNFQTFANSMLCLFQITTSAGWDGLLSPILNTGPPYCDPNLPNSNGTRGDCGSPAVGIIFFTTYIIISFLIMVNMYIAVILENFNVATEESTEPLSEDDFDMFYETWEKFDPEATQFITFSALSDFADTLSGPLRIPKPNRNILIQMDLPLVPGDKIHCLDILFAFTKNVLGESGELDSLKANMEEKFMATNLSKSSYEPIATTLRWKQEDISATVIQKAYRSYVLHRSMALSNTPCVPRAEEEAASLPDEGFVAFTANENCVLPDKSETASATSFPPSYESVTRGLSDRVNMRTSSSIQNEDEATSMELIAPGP
Assay type: cell-based
For `O=C(CN1CCc2cccc(O)c2C1)NCCC(c1ccccc1)c1ccccc1` [Example 27, N-(3,3-Diphenyl-propyl)-2-(8-hydroxy-3,4-dihydro-1H-isoquinolin-2-yl)-acetamide], the pIC50 was 5.99.

Same assay, conditions: Table 1; SH-SY-5Y hNav1.8 cells, inhibition of membrane depolarisation, FLIPR membrane potential dye, 250 nM TTX, test concentration range 100 μM-0.05 μM; read-out: IC50
With `Oc1cccc2c1CN(CC(c1ccccc1)c1ccccc1)CC2` [Example 11, 2-(2,2-Diphenyl-ethyl)-1,2,3,4-tetrahydro-isoquinoline-8-ol] the pIC50 was 6.22. `O=C(CN1Cc2ccccc2C1)NC(c1ccccc1)c1ccccc1` [Example 41, N-Benzhydryl-2-(1,3-dihydro-isoindol-2-yl)-acetamide] showed a pIC50 of 5.15. Work on `COc1cccc2c1CN(CC(=O)NCC(c1ccccc1)c1ccccc1)CC2` [Example 61, N-(2,2-Diphenyl-ethyl)-2-(8-methoxy-3,4-dihydro-1H-isoquinolin-2-yl)-acetamide] yielded a pIC50 of 5.59. `O=C(CNCCC(c1ccccc1)c1ccccc1)N1CCc2ccccc2C1` [Example 34, 1-(3,4-Dihydro-1H-isoquinolin-2-yl)-2-(3,3-diphenyl-propylamino)-ethanone] showed a pIC50 of 6.72. With `COc1cccc2c1CN(CC(=O)N1CCN(C(c3ccc(F)cc3)c3ccc(F)cc3)CC1)CC2` [Example 63, 1-{4-[Bis-(4-fluoro-phenyl)-methyl]-piperazin-1-yl}-2-(8-methoxy-3,4-dihydro-1H-isoquinolin-2-yl)-ethanone] the pIC50 was 4.80. `Oc1cccc2c1CN(Cc1cc(F)cc(F)c1)CC2` [Example 93, 2-(3,5-Difluoro-benzyl)-1,2,3,4-tetrahydro-isoquinolin-8-ol] showed a pIC50 of 5.33. Work on “N-Benzhydryl-2-(8-methoxy-3,4-dihydro-1H-isoquinolin-2-yl)-N-phenyl-acetamide [Example 21]” yielded a pIC50 of 5.90. For `CC(CN1CCc2cccc(O)c2C1)OCc1ccccc1` (stereo not shown) [Example 48, 2-(2-Benzyloxy-propyl)-1,2,3,4-tetrahydro-isoquinolin-8-ol], the pIC50 was 5.32. With `Oc1cccc2c1CN(CCCC(c1ccc(F)cc1)c1ccc(F)cc1)CC2` [Example 96, 2-[4,4-Bis-(4-fluoro-phenyl)-butyl]-1,2,3,4-tetrahydro-isoquinolin-8-ol] the pIC50 was 5.71. `O=C(CN1CCc2ccccc2C1)N1CCN(C(c2ccc(F)cc2)c2ccc(F)cc2)CC1` [Example 65, 1-{4-[Bis-(4-fluoro-phenyl)-methyl]-piperazin-1-yl}-2-(3,4-dihydro-1H-isoquinolin-2-yl)-ethanone] showed a pIC50 of 5.25.

Same assay, conditions: Table 2 (compound numbers of the list in the description); SH-SY-5Y hNav1.8 cells, inhibition of membrane depolarisation, FLIPR membrane potential dye, 250 nM TTX, test concentration range 100 μM-0.05 μM; read-out: IC50
In the case of `CCOC(=O)C1CN(C(=O)CN2CCc3cccc(OC)c3C2)c2ccccc2O1` (stereo not shown) [Compound 171, 4-[2-(8-Methoxy-3,4-dihydro-1H-isoquinolin-2-yl)-acetyl]-3,4-dihydro-2H-benzo[1,4]oxazine-2-carboxylic acid ethyl ester], the pIC50 was 5.76. With `Nc1cccc2c1CCN(CCC(=O)NCCC(c1ccccc1)c1ccccc1)C2` [Compound 122, 3-(5-Amino-3,4-dihydro-1H-isoquinolin-2-yl)-N-(3,3-diphenyl-propyl)-propionamide] the pIC50 was 6.02. Compound `COc1cccc2c1CN(CC(=O)N1c3ccccc3Sc3ccccc31)CC2` [Compound 140, 2-(8-Methoxy-3,4-dihydro-1H-isoquinolin-2-yl)-1-phenothiazin-10-yl-ethanone] has a pIC50 of 5.63. For `COc1cccc2c1CN(CCNC(=O)Nc1ccc(Oc3ccccc3)cc1)CC2` [Compound 174, 1-[2-(8-Methoxy-3,4-dihydro-1H-isoquinolin-2-yl)-ethyl]-3-(4-phenoxy-phenyl)-urea], the pIC50 was 6.26. `COc1ccc(C2COc3ccccc3N2C(=O)CN2CCc3cccc(OC)c3C2)cc1OC` (stereo not shown) [Compound 216, 1-[3-(3,4-Dimethoxy-phenyl)-2,3-dihydro-benzo[1,4]oxazin-4-yl]-2-(8-methoxy-3,4-dihydro-1H-isoquinolin-2-yl)-ethanone] showed a pIC50 of 5.37. `O=C(NCCN1CCc2cccc(O)c2C1)N1c2ccccc2Sc2ccccc21` [Compound 160, Phenothiazine-10-carboxylic acid [2-(8-hydroxy-3,4-dihydro-1H-isoquinolin-2-yl)-ethyl]-amide] was tested, and the pIC50 was 6.02. `CCOC(=O)C1CN(C(=O)CN2CCc3cccc(O)c3C2)c2ccccc2O1` (stereo not shown) [Compound 170, 4-[2-(8-Hydroxy-3,4-dihydro-1H-isoquinolin-2-yl)-acetyl]-3,4-dihydro-2H-benzo[1,4]oxazine-2-carboxylic acid ethyl ester] showed a pIC50 of 5.77. For `COc1cccc2c1CN(CC(=O)N1c3ccccc3OCC1C)CC2` (stereo not shown) [Compound 205, 2-(8-Methoxy-3,4-dihydro-1H-isoquinolin-2-yl)-1-(3-methyl-2,3-dihydro-benzo[1,4]oxazin-4-yl)-ethanone], the pIC50 was 5.33. For `COc1cccc2c1CN(CCNC(=O)N1c3ccccc3Sc3ccccc31)CC2` [Compound 162, Phenothiazine-10-carboxylic acid [2-(8-methoxy-3,4-dihydro-1H-isoquinolin-2-yl)-ethyl]-amide], the pIC50 was 6.01. With `O=C(CN1CCc2cc(O)ccc2C1)N1c2ccccc2Oc2ccccc21` [Compound 194, 2-(6-Hydroxy-3,4-dihydro-1H-isoquinolin-2-yl)-1-phenoxazin-10-yl-ethanone] the pIC50 was 5.54. `COc1cc2c(cc1OC)CN(CC(=O)N1c3ccccc3Sc3ccc(C(C)=O)cc31)CC2` [Compound 155, 1-(2-Acetyl-phenothiazin-10-yl)-2-(6,7-dimethoxy-3,4-dihydro-1H-isoquinolin-2-yl)-ethanone] was tested, and the pIC50 was 5.20. Compound `COc1cccc2c1CN(CC(=O)NN(c1ccccc1)c1ccccc1)CC2` [Compound 168, (8-Methoxy-3,4-dihydro-1H-isoquinolin-2-yl)-acetic acid N′,N′-diphenyl-hydrazide] has a pIC50 of 5.70. Compound `COc1cc2c(cc1OC)CN(CC(=O)NCCCC(c1ccccc1)c1ccccc1)CC2` [Compound 124, 2-(Dimethoxy-3,4-dihydro-1H-isoquinolin-2-yl)-N-(4,4-diphenyl-butyl)-acetamide] has a pIC50 of 6.23. `O=C(NCCN1CCc2cccc(O)c2C1)N1c2ccccc2Oc2ccccc21` [Compound 163, Phenoxazine-10-carboxylic acid [2-(8-hydroxy-3,4-dihydro-1H-isoquinolin-2-yl)-ethyl]-amide] was tested, and the pIC50 was 6.11. Work on `Nc1cccc2c1CN(CC(=O)NCCC(c1ccccc1)c1ccccc1)C2` [Compound 99, 2-(4-Amino-1,3-dihydro-isoindol-2-yl)-N-(3,3-diphenyl-propyl)-acetamide] yielded a pIC50 of 5.61. Work on `COc1cc2c(cc1OC)CN(CC(=O)N1c3ccccc3[S+]([O-])c3ccccc31)CC2` [Compound 157, 2-(6,7-Dimethoxy-3,4-dihydro-1H-isoquinolin-2-yl)-1-(5-oxo-5H-5lambda*4*-phenothiazin-10-yl)-ethanone] yielded a pIC50 of 4.52. With `COc1cccc2c1CN(CC(=O)N1c3ccccc3OCC1c1ccc(F)cc1)CC2` (stereo not shown) [Compound 215, 1-[3-(4-Fluoro-phenyl)-2,3-dihydro-benzo[1,4]oxazin-4-yl]-2-(8-methoxy-3,4-dihydro-1H-isoquinolin-2-yl)-ethanone] the pIC50 was 5.95. With `COc1cc2c(cc1OC)CN(CC(=O)N1c3ccccc3Sc3ccc(SC)cc31)CC2` [Compound 156, 2-(6,7-Dimethoxy-3,4-dihydro-1H-isoquinolin-2-yl)-1-(2-methylsulfanyl-phenothiazin-10-yl)-ethanone] the pIC50 was 5.63. In the case of `Nc1cccc2c1CN(CC(=O)NCC(c1ccccc1)c1ccccc1)CC2` [Compound 111, 2-(8-Amino-3,4-dihydro-1H-isoquinolin-2-yl)-N-(2,2-diphenyl-ethyl)-acetamide], the pIC50 was 5.41. For `COc1cccc2c1CN(CC(=O)N1CCOc3ccccc31)CC2` [Compound 192, 1-(2,3-Dihydro-benzo[1,4]oxazin-4-yl)-2-(8-methoxy-3,4-dihydro-1H-isoquinolin-2-yl)-ethanone], the pIC50 was 5.04. `O=C(CN1CCc2cccc(O)c2C1)N1c2ccccc2Oc2ccccc21` [Compound 144, 2-(8-Hydroxy-3,4-dihydro-1H-isoquinolin-2-yl)-1-phenoxazin-10-yl-ethanone] showed a pIC50 of 6.30. With `COc1cccc2c1CN(CC(=O)Nc1ccccc1Oc1ccccc1)CC2` [Compound 184, 2-(8-Methoxy-3,4-dihydro-1H-isoquinolin-2-yl)-N-(2-phenoxy-phenyl)-acetamide] the pIC50 was 4.96. `COc1cc2c(cc1OC)CN(CC(=O)N1c3ccccc3Sc3ccccc31)CC2` [Compound 152, 2-(6,7-Dimethoxy-3,4-dihydro-1H-isoquinolin-2-yl)-1-phenothiazin-10-yl-ethanone] was tested, and the pIC50 was 5.52. Compound `COc1cccc2c1CN(C(C)C(=O)N1c3ccccc3Oc3ccccc31)CC2` (stereo not shown) [Compound 200, 2-(8-Methoxy-3,4-dihydro-1H-isoquinolin-2-yl)-1-phenoxazin-10-yl-propan-1-one] has a pIC50 of 5.78. `COc1cc2c(cc1OC)CN(CC(=O)N1c3ccccc3Sc3ccc(Cl)cc31)CC2` [Compound 153, 1-(2-Chloro-phenothiazin-10-yl)-2-(6,7-dimethoxy-3,4-dihydro-1H-isoquinolin-2-yl)-ethanone] was tested, and the pIC50 was 5.27. For `CS(=O)(=O)Oc1cccc2c1CN(CC(=O)N1c3ccccc3Oc3ccccc31)C2` [Compound 203, Methanesulfonic acid 2-(2-oxo-2-phenoxazin-10-yl-ethyl)-2,3-dihydro-1H-isoindol-4-yl ester], the pIC50 was 5.95. `COc1ccc2c(c1)CCCN(CC(=O)NCC(c1ccccc1)c1ccccc1)C2` [Compound 84, N-(2,2-diphenyl-ethyl)-2-(7-methoxy-1,3,4,5-tetrahydro-benzo[c]azepin-2-yl)-acetamide] showed a pIC50 of 6.40. `COc1cccc2c1CN(CCC(=O)NCCC(c1ccc(F)cc1)c1ccc(F)cc1)CC2` [Compound 166, N-[3,3-Bis-(4-fluoro-phenyl)-propyl]-3-(8-methoxy-3,4-dihydro-1H-isoquinolin-2-yl)-propionamide] was tested, and the pIC50 was 6.46. `COc1cccc2c1CN(CC(=O)NC1c3ccccc3Oc3ccccc31)CC2` [Compound 180, 2-(8-Methoxy-3,4-dihydro-1H-isoquinolin-2-yl)-N-(9H-xanthen-9-yl)-acetamide] was tested, and the pIC50 was 5.28.
